Measured values published in patent publication US9604973B2, “Anti-cancer polyketide compounds” (priority 2012, dated 2017).

Key:
[1] = Hydrolysis, NMR monitoring; format: physicochemical; conditions: neutral conditions; 10 mM in D2O/DMSO-d6 (10:1) at 37° C.
Procedure: FIG. 18A-18B: Hydrolysis of FD-895 (1a). FIG. 18A) NMR monitoring of the incubation of 10 mM 1a in D2O/DMSO-d6 (10:1) at 37° C. Hydrolysis occurs as marked by a shift of the C11 proton (large to small circles). Assignments of 3a, 3b and 3c were made based on coupling constant and gCOSY analyses. FIG. 18B) LdC-HRMS trace depicting the products at 143 h including acids 3a-3c (mass calcd. for C31H52O10Na=607.3453 m/z) along with unhydrolized 1a (mass calcd. for C31H50O9Na=589.3347 m/z). Exact masses [M+Na]^+ are provided for each peak.
Based on this observation, we turned our efforts to apply conventional SAR techniques to identify analogs with improved stability.

HCT-116 cell line = assay: MTT cell proliferation assay; format: cell-based
Text: Structure Activity Relationships (SAR) studies for 1SS, […], 1RS, and […]. It has been reported that ablation of C3, C6 and C7 substituents is detrimental to activity. […] (See FIG. 4). Additional activity was also observed when C17 was left in its natural R configuration.

CCC(OC)C(C)C1OC1C(O)C(C)/C=C/C=C(\C)C1OC(=O)CC(O)CCC(C)(O)C(OC(C)=O)/C=C/C1C (stereo not shown) [FD-895]
hydrolysis [1]: undergoes hydrolysis under neutral conditions
IC50 (HCT-116 cell line; HCT-116 cell line, MTT): 23.5 ± 0.2 nM
IC50 (HCT-116 cell line; HCT-116 cell line, MTT, listed as 1RR): 24.2 ± 0.9 nM
IC50 (HCT-116 cell line; background statement, cell line not given): 24.2 ± 0.9 nM
